Results from the supplement of paper PMC9663587.

Legend:
THZ1 [1] = compound: T1, CN(C)C/C=C/C(=O)Nc1ccc(C(=O)Nc2cccc(Nc3ncc(Cl)c(-c4c[nH]c5ccccc45)n3)c2)cc1 [THZ1]; experiment: increase in dead-cell fraction, 72 h; higher = more death;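 note: breast cancer cell lines in 384-well plates, stained with Hoechst plus LIVE/DEAD far red dye and imaged, cells above an LDR intensity threshold counted dead, Hoechst-negative corpses included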
LEE011/Ribociclib = compound: CN(C)C(=O)c1cc2cnc(Nc3ccc(N4CCNCC4)cn3)nc2n1C1CCCC1 [LEE011/Ribociclib]; experiment: as above
BSJ-03-123 = compound: CC(=O)c1c(C)c2cnc(Nc3ccc(N4CCN(CCOCCOCCOCCNC(=O)COc5cccc6c5C(=O)N(C5CCC(=O)NC5=O)C6=O)CC4)cn3)nc2n(C2CCCC2)c1=O [BSJ-03-123]; experiment: as above
Flavopiridol [2] = compound: T2, CN1CC[C@H](c2c(O)cc(O)c3c(=O)cc(-c4ccccc4Cl)oc23)[C@H](O)C1 [Flavopiridol]; experiment: as above
[3] = compound: CCc1cnn2c(NCc3ccc[n+]([O-])c3)cc(N3CCCC[C@H]3CCO)nc12; experiment: as above
Neratinib/HKI272 = compound: CCOc1cc2ncc(C#N)c(Nc3ccc(OCc4ccccn4)c(Cl)c3)c2cc1NC(=O)/C=C/CN(C)C [Neratinib/HKI272]; experiment: as above
[4] = compound: CCN1CCN(Cc2ccc(Nc3ncc(F)c(-c4cc(F)c5nc(C)n(C(C)C)c5c4)n3)nc2)CC1; experiment: as above
[5] = compound: CC(=O)c1c(C)c2cnc(Nc3ccc(N4CCNCC4)cn3)nc2n(C2CCCC2)c1=O; experiment: as above
THZ1 [6] = compound: T1, THZ1; experiment: GR value, 72 h; higher = faster growth (1 = untreated, <0 = killing);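 note: breast cancer and non-malignant breast epithelial lines, nine half-log doses, viable cells counted by Hoechst and LIVE/DEAD dye imaging versus time-zero plates and DMSO controls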
Flavopiridol [7] = compound: T2, Flavopiridol; experiment: as above
THZ531 = compound: CN(C)C/C=C/C(=O)Nc1ccc(C(=O)N2CCC[C@@H](Nc3ncc(Cl)c(-c4c[nH]c5ccccc45)n3)C2)cc1 [THZ531]; experiment: as above
[8] = compound: CC(=O)c1c(C)c2cnc(Nc3ccc(N4CCNCC4)cn3)nc2n(C2CCCC2)c1=O; experiment: as above

## MGH312
THZ1 [1]; 0.0001 µM
  increase in dead-cell fraction: -0.0154
THZ1 [1]; 0.0003162 µM
  increase in dead-cell fraction: 0
THZ1 [1]; 0.001 µM
  increase in dead-cell fraction: -0.0061
THZ1 [1]; 0.003162 µM
  increase in dead-cell fraction: 0.0002
THZ1 [1]; 0.01 µM
  increase in dead-cell fraction: 0.0559
THZ1 [1]; 0.03162 µM
  increase in dead-cell fraction: 0.541
THZ1 [1]; 0.1 µM
  increase in dead-cell fraction: 0.684
THZ1 [1]; 0.3162 µM
  increase in dead-cell fraction: 0.628
THZ1 [1]; 1 µM
  increase in dead-cell fraction: 0.699
LEE011/Ribociclib; 0.001 µM
  increase in dead-cell fraction: -0.0153
LEE011/Ribociclib; 0.003162 µM
  increase in dead-cell fraction: -0.0081
LEE011/Ribociclib; 0.01 µM
  increase in dead-cell fraction: 0.0061
LEE011/Ribociclib; 0.03162 µM
  increase in dead-cell fraction: -0.0004
LEE011/Ribociclib; 0.1 µM
  increase in dead-cell fraction: 0.001
LEE011/Ribociclib; 0.3162 µM
  increase in dead-cell fraction: -0.0068
LEE011/Ribociclib; 1 µM
  increase in dead-cell fraction: 0.006
LEE011/Ribociclib; 3.162 µM
  increase in dead-cell fraction: 0.004
LEE011/Ribociclib; 10 µM
  increase in dead-cell fraction: -0.0032
BSJ-03-123; 0.001 µM
  increase in dead-cell fraction: -0.0024
BSJ-03-123; 0.003162 µM
  increase in dead-cell fraction: 0.0067
BSJ-03-123; 0.01 µM
  increase in dead-cell fraction: 0.0098
BSJ-03-123; 0.03162 µM
  increase in dead-cell fraction: -0.0134
BSJ-03-123; 0.1 µM
  increase in dead-cell fraction: 0.0037
BSJ-03-123; 0.3162 µM
  increase in dead-cell fraction: 0.0116
BSJ-03-123; 1 µM
  increase in dead-cell fraction: 0.0094
BSJ-03-123; 3.162 µM
  increase in dead-cell fraction: 0.0031
BSJ-03-123; 10 µM
  increase in dead-cell fraction: 0.55
Flavopiridol [2]; 0.0001 µM
  increase in dead-cell fraction: -0.004
Flavopiridol [2]; 0.0003162 µM
  increase in dead-cell fraction: -0.0016
Flavopiridol [2]; 0.001 µM
  increase in dead-cell fraction: -0.0079
Flavopiridol [2]; 0.003162 µM
  increase in dead-cell fraction: 0.013
Flavopiridol [2]; 0.01 µM
  increase in dead-cell fraction: 0.0083
Flavopiridol [2]; 0.03162 µM
  increase in dead-cell fraction: -0.0027
Flavopiridol [2]; 0.1 µM
  increase in dead-cell fraction: 0.0209
Flavopiridol [2]; 0.3162 µM
  increase in dead-cell fraction: 0.249
Flavopiridol [2]; 1 µM
  increase in dead-cell fraction: 0.705
[3]; 0.0001 µM
  increase in dead-cell fraction: 0.0027
[3]; 0.0003162 µM
  increase in dead-cell fraction: 0.0051
[3]; 0.001 µM
  increase in dead-cell fraction: -0.0065
[3]; 0.003162 µM
  increase in dead-cell fraction: -0.0023
[3]; 0.01 µM
  increase in dead-cell fraction: 0.0052
[3]; 0.03162 µM
  increase in dead-cell fraction: 0.481
[3]; 0.1 µM
  increase in dead-cell fraction: 0.649
[3]; 0.3162 µM
  increase in dead-cell fraction: 0.713
[3]; 1 µM
  increase in dead-cell fraction: 0.67
Neratinib/HKI272; 0.0003162 µM
  increase in dead-cell fraction: -0.0056
Neratinib/HKI272; 0.001 µM
  increase in dead-cell fraction: -0.0054
Neratinib/HKI272; 0.003162 µM
  increase in dead-cell fraction: -0.0078
Neratinib/HKI272; 0.01 µM
  increase in dead-cell fraction: 0.0126
Neratinib/HKI272; 0.03162 µM
  increase in dead-cell fraction: 0.0263
Neratinib/HKI272; 0.1 µM
  increase in dead-cell fraction: 0.0191
Neratinib/HKI272; 0.3162 µM
  increase in dead-cell fraction: 0.0224
Neratinib/HKI272; 1 µM
  increase in dead-cell fraction: 0.0395
Neratinib/HKI272; 3.162 µM
  increase in dead-cell fraction: 0.0962
[4]; 0.001 µM
  increase in dead-cell fraction: -0.0051
[4]; 0.003162 µM
  increase in dead-cell fraction: -0.0048
[4]; 0.01 µM
  increase in dead-cell fraction: -0.0002
[4]; 0.03162 µM
  increase in dead-cell fraction: -0.0029
[4]; 0.1 µM
  increase in dead-cell fraction: -0.0075
[4]; 0.3162 µM
  increase in dead-cell fraction: 0.0016
[4]; 1 µM
  increase in dead-cell fraction: -0.0026
[4]; 3.162 µM
  increase in dead-cell fraction: 0.0207
[4]; 10 µM
  increase in dead-cell fraction: 0.208
[5]; 0.0003162 µM
  increase in dead-cell fraction: -0.0083
[5]; 0.001 µM
  increase in dead-cell fraction: -0.0121
[5]; 0.003162 µM
  increase in dead-cell fraction: 0.0011
[5]; 0.01 µM
  increase in dead-cell fraction: -0.0042
[5]; 0.03162 µM
  increase in dead-cell fraction: 0.001
[5]; 0.1 µM
  increase in dead-cell fraction: -0.0039
[5]; 0.3162 µM
  increase in dead-cell fraction: 0.003
[5]; 1 µM
  increase in dead-cell fraction: 0.0034
[5]; 3.162 µM
  increase in dead-cell fraction: 0.0037
THZ1 [6]; 0.0001 µM
  GR value: 1.22 GR
THZ1 [6]; 0.0003162 µM
  GR value: 0.923 GR
THZ1 [6]; 0.001 µM
  GR value: 0.962 GR
THZ1 [6]; 0.003162 µM
  GR value: 0.662 GR
THZ1 [6]; 0.01 µM
  GR value: 0.287 GR
THZ1 [6]; 0.03162 µM
  GR value: -0.892 GR
THZ1 [6]; 0.1 µM
  GR value: -0.905 GR
THZ1 [6]; 0.3162 µM
  GR value: -0.92 GR
THZ1 [6]; 1 µM
  GR value: -0.934 GR
Flavopiridol [7]; 0.0001 µM
  GR value: 1.11 GR
Flavopiridol [7]; 0.0003162 µM
  GR value: 1.12 GR
Flavopiridol [7]; 0.001 µM
  GR value: 0.95 GR
Flavopiridol [7]; 0.003162 µM
  GR value: 0.74 GR
Flavopiridol [7]; 0.01 µM
  GR value: 0.921 GR
Flavopiridol [7]; 0.03162 µM
  GR value: 0.947 GR
Flavopiridol [7]; 0.1 µM
  GR value: 0.503 GR
Flavopiridol [7]; 0.3162 µM
  GR value: -0.521 GR
Flavopiridol [7]; 1 µM
  GR value: -0.945 GR
THZ531; 0.0001 µM
  GR value: 1.09 GR
THZ531; 0.0003162 µM
  GR value: 1.17 GR
THZ531; 0.001 µM
  GR value: 0.736 GR
THZ531; 0.003162 µM
  GR value: 1.06 GR
THZ531; 0.01 µM
  GR value: 1.32 GR
THZ531; 0.03162 µM
  GR value: 0.538 GR
THZ531; 0.1 µM
  GR value: -0.928 GR
THZ531; 0.3162 µM
  GR value: -0.947 GR
THZ531; 1 µM
  GR value: -0.909 GR
[8]; 0.0003162 µM
  GR value: 1.2 GR
[8]; 0.001 µM
  GR value: 1.09 GR
[8]; 0.003162 µM
  GR value: 1.2 GR
[8]; 0.01 µM
  GR value: 1.04 GR
[8]; 0.03162 µM
  GR value: 1.09 GR
[8]; 0.1 µM
  GR value: 1.21 GR
[8]; 0.3162 µM
  GR value: 1.11 GR
[8]; 1 µM
  GR value: 1.18 GR
[8]; 3.162 µM
  GR value: 1.04 GR
